Experimental data taken from ChEMBL document CHEMBL5512599, “Synthetic non-toxic anti-biofilm agents as a strategy in combating bacterial resistance” (Eur J Med Chem, 2023).
Values after ≈ are worked out from the molar mass of the structure shown. Each block holds one molecule with its values, some of them ahead of it.

Legend:
[1] = tested on: Enterococcus faecalis; assay: Antibiofilm activity against Enterococcus faecalis ATCC 29212 assessed as biofilm eradication incubated for 20 mins by crystal violet staining based analysis; type: functional
[2] = tested on: Enterococcus faecalis; assay: Antibacterial activity against Enterococcus faecalis ATCC 29212 assessed as bacterial growth inhibition incubated for 15 to 18 hrs by Muller hinton broth based dilution assay; type: functional; details: time 15-18 hrs
[3] = tested on: Staphylococcus aureus; assay: Antibiofilm activity against methicillin-resistant Staphylococcus aureus assessed as inhibition of biofilm formation incubated for overnight by crystal violet staining based microtiter plate assay; type: functional, organism-based
[4] = target: T1, Transcriptional regulator MvfR (Pseudomonas aeruginosa PA14, UniProt A0A072ZLE6); assay: Antagonist activity at PqsR in wild-type Pseudomonas aeruginosa PAO1-L
T1 sequence (A0A072ZLE6 whole entry): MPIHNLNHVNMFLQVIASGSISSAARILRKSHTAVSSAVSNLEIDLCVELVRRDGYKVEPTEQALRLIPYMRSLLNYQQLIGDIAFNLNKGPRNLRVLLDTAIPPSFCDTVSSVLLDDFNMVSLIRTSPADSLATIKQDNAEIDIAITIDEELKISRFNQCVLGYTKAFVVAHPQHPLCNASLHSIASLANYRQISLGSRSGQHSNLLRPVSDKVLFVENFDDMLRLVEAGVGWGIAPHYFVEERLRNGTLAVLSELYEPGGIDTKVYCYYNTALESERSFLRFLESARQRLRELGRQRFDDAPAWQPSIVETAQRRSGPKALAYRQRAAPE

[5] = tested on: Pseudomonas aeruginosa; assay: Antibiofilm activity against Pseudomonas aeruginosa PA14 assessed as inhibition of biofilm formation incubated for 24 hrs by microscopic analysis; type: functional, organism-based; details: PA14, 24 h
[6] = tested on: Staphylococcus aureus; assay: Antibiofilm activity against Methicillin-resistant Staphylococcus aureus ATCC BAA-4A assessed as inhibition of biofilm formation; type: functional, organism-based
[7] = tested on: Pseudomonas aeruginosa; assay: Anti-motility activity against Pseudomonas aeruginosa PAO1 assessed as reduction in swarming at 20 uM incubated for 16 hrs by crystal violet staining analysis relative to control; type: functional; set-up: scale not given: the % may be the effect or the level left
[8] = tested on: Staphylococcus epidermidis; assay: Antibiofilm activity against Staphylococcus epidermidis assessed as inhibition of biofilm formation at 40 uM measured after 24 hrs by confocal laser scanning microscopy analysis relative to control; type: functional; set-up: scale not given: the % may be the effect or the level left
[9] = tested on: Staphylococcus aureus; assay: Antibiofilm activity against Staphylococcus aureus ATCC 33862 assessed as reduction in biofilm formation at 20 uM incubated for 24 hrs by absorbance based assay relative to control; type: functional; set-up: scale not given: the % may be the effect or the level left
[10] = tested on: Pseudomonas aeruginosa; assay: Antibiofilm activity against Pseudomonas aeruginosa ATCC 10145 assessed as reduction in biofilm formation at 20 uM incubated for 24 hrs by absorbance based assay relative to control; type: functional; set-up: scale not given: the % may be the effect or the level left
[11] = target: T1, Transcriptional regulator MvfR; assay: Antagonist activity at PqsR in wild-type Pseudomonas aeruginosa PAO1 assessed as reduction in AQ level at 0.2 uM by LCMS/MS analysis
[12] = tested on: Staphylococcus aureus; assay: Antimicrobial activity against Staphylococcus aureus ATCC 25923 assessed as reduction in bacterial growth at 0.12 uM incubated for 16 hrs by broth dilution method relative to control; type: functional; set-up: scale not given: the % may be the effect or the level left
[13] = tested on: Staphylococcus aureus; assay: Antimicrobial activity against Staphylococcus aureus ATCC 25923 assessed as reduction in bacterial growth at 0.5 uM incubated for 16 hrs by broth dilution method relative to control; type: functional; set-up: scale not given: the % may be the effect or the level left
[14] = tested on: Staphylococcus aureus; assay: Antimicrobial activity against Staphylococcus aureus ATCC 25923 assessed as reduction in bacterial growth at 0.25 uM incubated for 16 hrs by broth dilution method relative to control; type: functional; set-up: scale not given: the % may be the effect or the level left
[15] = tested on: Pseudomonas aeruginosa; assay: Antibiofilm activity against Pseudomonas aeruginosa PAO1 assessed as inhibition of biofilm formation incubated at 15 uM relative to control; type: functional; set-up: scale not given: the % may be the effect or the level left
[16] = tested on: Pseudomonas aeruginosa; assay: Antibiofilm activity against Pseudomonas aeruginosa PAO1 assessed as inhibition of biofilm formation at 64 microg/ml incubated for 24 hrs by BacTiter Glo reagent based luminescence analysis relative to control; type: functional; set-up: scale not given: the % may be the effect or the level left; details: dose 64 µg/ml
[17] = Inhibition of quorum sensing system in Pseudomonas aeruginosa PAO1 assessed as inhibition of pyocyanin production at 256 ug/ml incubated for 24 hrs by absorbance based assay; details: dose 256.0 µg/ml
[18] = tested on: Pseudomonas aeruginosa; assay: Antibiofilm activity against Pseudomonas aeruginosa PAO1 assessed as inhibition of biofilm formation incubated at 100 uM incubated for 24 hrs by crystal violet staining based analysis relative to control; type: functional; set-up: scale not given: the % may be the effect or the level left
[19] = tested on: Staphylococcus aureus; assay: Antibiofilm activity against Staphylococcus aureus ATCC 25923 at 25 ug/ml measured after 24 hrs by crystal violet staining based analysis relative to control; type: functional; details: dose 25 µg/ml
[20] = Inhibition of Quorum sensing system Las in Pseudomonas aeruginosa PAO1 assessed as reduction in interaction with LasR regulator
[21] = Inhibition of quorum sensing system in Pseudomonas aeruginosa PA14 assessed as inhibition of pyocyanin production
[22] = tested on: Pseudomonas aeruginosa; assay: Antibiofilm activity against Pseudomonas aeruginosa ATCC 27853 assessed as inhibition of biofilm formation at 0.5 times of MIC by crystal violet staining based analysis relative to control; type: functional; set-up: scale not given: the % may be the effect or the level left
[23] = tested on: Pseudomonas aeruginosa; assay: Antibiofilm activity against Pseudomonas aeruginosa PAO1 assessed as inhibition of biofilm formation incubated at 50 uM incubated for 24 hrs by crystal violet staining based analysis relative to control; type: functional; set-up: scale not given: the % may be the effect or the level left
[24] = tested on: Staphylococcus epidermidis; assay: Antibacterial activity against Staphylococcus epidermidis RP62A assessed as reduction in bacterial growth incubated for 18 to 20 hrs by broth microdilution assay; type: functional; details: time 18-20 hrs
[25] = tested on: Staphylococcus aureus; assay: Antibacterial activity against Staphylococcus aureus ATCC 6538 assessed as reduction in bacterial growth incubated for 18 to 24 hrs by broth microdilution method; type: functional; details: time 18-24 hrs
[26] = tested on: Staphylococcus aureus; assay: Antibacterial activity against Staphylococcus aureus ATCC 25923 assessed as reduction in bacterial growth incubated for 18 to 24 hrs by broth microdilution method; type: functional; details: time 18-24 hrs
[27] = tested on: Staphylococcus aureus; assay: Antibacterial activity against Staphylococcus aureus ATCC 29213 assessed as reduction in bacterial growth incubated for 18 to 24 hrs by broth microdilution method; type: functional; details: time 18-24 hrs
[28] = Inhibition of Staphylococcus aureus sortase A by FRET assay

MIC [2]: 0.062 µg/mL (≈ 0.145 µM)
SMILES: COc1ccc(-c2csc(-c3ccc(-c4cnc(-c5ccccc5)s4)cc3)n2)cc1
MBEC [1]: 0.004 µg/mL

SMILES: C/C(=C\c1ccc2ccccc2c1)Cn1cc(CCCCCc2c[nH]c(N)n2)nn1
IC50 [3]: < 10 µM

SMILES: CCCCCCCCCc1nc2cc(F)ccc2c(=O)n1N
IC50 [4]: 1.2 µM

SMILES: CCCCCCCCCc1nc2cc(Cl)ccc2c(=O)n1N
IC50 [4]: 1.2 µM

MIC [2]: 0.25 µg/mL (≈ 0.549 µM)
SMILES: NC(=O)c1cc(-c2csc(-c3ccc(-c4cnc(-c5ccccc5)s4)cc3)n2)ccc1O
MBEC [1]: 0.008 µg/mL

IC50 [5]: 16 µM
SMILES: CCCCCCC(CCCCCC)NC(=O)CCCc1c[nH]c(N)n1

SMILES: CCCCCc1ccc(C(=O)NCCn2cc(CCCCCc3[nH]cnc3-c3ccc4c(c3)OCO4)nn2)cc1
IC50 [6]: 3.7 µM

SMILES: CCOC(=O)C1S/C(=N\N=C\c2cccc(Cl)c2)N(c2ccc(S(N)(=O)=O)cc2)C1=O (centres undefined)
Activity [7]: 72%
Activity [8]: 80%

SMILES: CCCCCCCCCCCC(=O)Nc1c(N)[nH]c2ccccc2c1=O
Activity [9]: >=50%
Activity [10]: >=50%

SMILES: N#CCc1ccc(OC[C@H](O)Cn2cnc3ccc(Cl)cc3c2=O)cc1
IC50 [11]: 1.1 µM

SMILES: Cc1ccc(C(=O)c2nn(-c3nc(-c4ccccc4)c(-c4sc(-n5nc(C(=O)c6ccc(C(F)(F)F)cc6)c(C(N)=O)c5N)nc4-c4ccccc4)s3)c(N)c2C(N)=O)cc1
Activity [12]: 35%
Activity [13]: 77%
Activity [14]: 50%

SMILES: COc1cccc(NC(=O)CC(=O)CSC(=S)N[C@@H]2CCOC2=O)c1
Activity [15]: 35%

SMILES: O=C(CCCCCOc1cccc(C(F)(F)F)c1)NNC(=O)Cn1c(=O)oc2ccccc21
Activity [16]: 45%
inhibition [17]: 63%

SMILES: CCCCCCCCCCCC(=O)Nc1cc(=O)c2ccccc2[nH]1
Activity [9]: >=50%
Activity [10]: >=50%

SMILES: O=C(CCCNc1ccc(F)cc1)NC1CCOC1=O (centres undefined)
Activity [18]: 70%

SMILES: Cc1nn(C)c([N-]C(=O)c2ccc(Cl)cc2)c1[N+]#N
Activity [19]: 69%

SMILES: CCCCCc1ccc(C(=O)NCCn2cc(CCCCCc3[nH]cnc3-c3cnc4ccccc4c3)nn2)cc1
IC50 [6]: 3.7 µM

IC50 [20]: 250 µM
SMILES: CCCCCCCC(=O)NC1CCCC1

IC50 [21]: 50 µM
SMILES: NCCCCCCCCCCCCNc1ccnc2cc(C(F)(F)F)ccc12
Activity [22]: 75%

SMILES: O=C(CCCCCCCCCN=C=S)CC(=O)N[C@H]1CCOC1=O
Activity [23]: 50%

SMILES: CCCCCCCCCCCCCCCC(=O)Nc1cc(=O)c2ccccc2[nH]1
Activity [9]: >=50%
Activity [10]: >=50%

MIC [2]: 0.062 µg/mL (≈ 0.147 µM)
SMILES: N#Cc1ccc(-c2csc(-c3ccc(-c4cnc(-c5ccccc5)s4)cc3)n2)cc1
MBEC [1]: 0.002 µg/mL

MIC [24]: > 270 µM
MIC [25]: > 270 µM
MIC [26]: > 270 µM
MIC [27]: > 270 µM
IC50 [28]: 87 µM
SMILES: CC(=O)/C(=N\Nc1cccc(Cl)c1)C(=O)O

MIC [2]: 0.062 µg/mL (≈ 0.14 µM)
SMILES: O=[N+]([O-])c1ccc(-c2csc(-c3ccc(-c4cnc(-c5ccccc5)s4)cc3)n2)cc1
MBEC [1]: 0.002 µg/mL

SMILES: CCCCCCCCCCCCCC(=O)Nc1cc(=O)c2ccccc2[nH]1
Activity [9]: >=50%
Activity [10]: >=50%

MIC [24]: > 270 µM
MIC [25]: > 270 µM
MIC [26]: > 270 µM
MIC [27]: > 270 µM
IC50 [28]: 57 µM
SMILES: CC(=O)/C(=N\Nc1ccc([N+](=O)[O-])cc1)C(=O)O

SMILES: CCCCCCCCCCCCCCCC(=O)Nc1c(N)[nH]c2ccccc2c1=O
Activity [9]: >=50%
Activity [10]: >=50%
